Earlier results in PubChem BioAssay AID1259409 (Chemical Carcinogenesis Research Information System (CCRIS), 2018).
Where a SMILES comes first, the peptide text is derived from it.

Tested on: rodent chemically induced tumor inhibition, incidence and multiplicity
Experiment: CCRIS tumor inhibitor studies

Row | Compound | tumour outcome (control, treated, inhibition, significance) (Carcinogen: 4-NITROQUINOLINE-1-OXIDE, 56-57-5, Dose [Inhibitor]: 0, 250 PPM IN DIET FOR 7 WK BEGINNING 1 WK PRIOR TO START OF CARCINOGEN TREATMENT (STUDY DURATION: 32 WK), Route [Inhibitor]: ORAL, Species: RAT, Strain/Sex: F344/MALE, Target Tissue: Type of Lesion: TONGUE: PAPILLOMA, Dose [Carcinogen]: 20 PPM IN DRINKING WATER FOR 5 WK, Promoter: NONE USED) | tumour outcome (control, treated, inhibition, significance) (Carcinogen: 7,12-DIMETHYLBENZ[A]ANTHRACENE, 57-97-6, Dose [Inhibitor]: 10 UMOL IN 200 µL ACETONE/DMSO (90:10) 2/WK FOR 19 WK BEGINNING 1 WK POST CARCINOGEN DOSE (STUDY DURATION: 20 WK), Route [Inhibitor]: DERMAL, Species: MOUSE, Strain/Sex: CD-1/FEMALE, Target Tissue: Type of Lesion: SKIN: PAPILLOMA, Dose [Carcinogen]: 200 NMOL IN 200 µL ACETONE ONCE, Promoter: 12-O-TETRADECANOYLPHORBOL-13-ACETATE, 16561-29-8) | tumour outcome (control, treated, inhibition, significance) (Carcinogen: 7,12-DIMETHYLBENZ[A]ANTHRACENE, 57-97-6, Dose [Inhibitor]: 20 UMOL IN 200 µL ACETONE/DMSO (90:10) 2/WK FOR 19 WK BEGINNING 1 WK POST CARCINOGEN DOSE (STUDY DURATION: 20 WK), Route [Inhibitor]: DERMAL, Species: MOUSE, Strain/Sex: CD-1/FEMALE, Target Tissue: Type of Lesion: SKIN: PAPILLOMA, Dose [Carcinogen]: 200 NMOL IN 200 µL ACETONE ONCE, Promoter: 12-O-TETRADECANOYLPHORBOL-13-ACETATE, 16561-29-8) | tumour outcome (control, treated, inhibition, significance) (Carcinogen: N-METHYL-N-NITROSOUREA [684-93-5], Dose [Inhibitor]: 250 PPM IN DIET FOR 22 WK BEGINNING 1 WK POST LAST CARCINOGEN DOSE (STUDY DURATION: 35 WK), Route [Inhibitor]: ORAL, Species: RAT, Strain/Sex: F344/MALE, Target Tissue: Type of Lesion: GLANDULAR STOMACH: ADENOCARCINOMA, Dose [Carcinogen]: 400 PPM IN DRINKING WATER FOR 12 WK (STUDY DURATION: 35 WK), Promoter: NONE) | tumour outcome (control, treated, inhibition, significance) (Carcinogen: N-METHYL-N-NITROSOUREA [684-93-5], Dose [Inhibitor]: 500 PPM IN DIET FOR 22 WK BEGINNING 1 WK POST LAST CARCINOGEN DOSE (STUDY DURATION: 35 WK), Route [Inhibitor]: ORAL, Species: RAT, Strain/Sex: F344/MALE, Target Tissue: Type of Lesion: GLANDULAR STOMACH: ADENOCARCINOMA, Dose [Carcinogen]: 400 PPM IN DRINKING WATER FOR 12 WK (STUDY DURATION: 35 WK), Promoter: NONE) | tumour outcome (control, treated, inhibition, significance) (Carcinogen: N-NITROQUINOLINE-1-OXIDE, 56-57-5, Dose [Inhibitor]: 0, 250 PPM IN DIET FOR 7 WK BEGINNING 1 WK PRIOR TO START OF CARCINOGEN TREATMENT (STUDY DURATION: 32 WK), Route [Inhibitor]: ORAL, Species: RAT, Strain/Sex: F344\MALE, Target Tissue: Type of Lesion: TONGUE: CARCINOMA, Dose [Carcinogen]: 20 PPM IN DRINKING WATER FOR 5 WK, Promoter: NONE USED) | tumour outcome (control, treated, inhibition, significance) (Carcinogen: N-BUTYL-N-(4-HYDROXYBUTYL)NITROSAMINE, 3817-11-6, Dose [Inhibitor]: 0, 30 UG/ANIMAL IN RIGHT THIGH DOES OF 1 UG/KG BW 1/D FOR 5 D WITH 4 WK INTERVALS FOR 6 MO (STUDY DURATION: 49 WK), Route [Inhibitor]: INTRAMUSCULAR, Species: RAT, Strain/Sex: ALBINO/MALE, Target Tissue: Type of Lesion: URINARY BLADDER: BENIGN TUMOR, Dose [Carcinogen]: 0.04% IN DRINKING WATER FOR FIRST 12 WK) | tumour outcome (control, treated, inhibition, significance) (Carcinogen: N-BUTYL-N-(4-HYDROXYBUTYL)NITROSAMINE, 3817-11-6, Dose [Inhibitor]: 0, 30 UG/ANIMAL IN RIGHT THIGH DOES OF 1 UG/KG BW 1/D FOR 5 D WITH 4 WK INTERVALS FOR 6 MO (STUDY DURATION: 49 WK), Route [Inhibitor]: INTRAMUSCULAR, Species: RAT, Strain/Sex: ALBINO/MALE, Target Tissue: Type of Lesion: URINARY BLADDER: IN SITU CARCINOMA, Dose [Carcinogen]: 0.04% IN DRINKING WATER FOR FIRST 12 WK)
1 | O=C(/C=C/c1ccc(O)c(O)c1)O[C@@H]1C[C@](O)(C(=O)O)C[C@@H](O)[C@H]1O | 1/15 (7%), 1/15 (7%), 0%, not significant | 68%, 47%, 31%, not calculated | 68%, 27%, 60%, not calculated | 12/20 (60.0%), 4/17 (23.5%), 61%, p<0.03 | 12/20 (60.0%), 7/21 (33.3%), 45%, not significant | 9/15 (60%), 1/15 (7%), 88%, p=0.0025 |  | 
2 | NCCCC[C@H](N)C(=O)N[C@@H](CCC(=O)O)C(=O)O (H-Lys-Glu-OH) |  |  |  |  |  |  | 13/49 (27%), 14/50 (28%), -4%, not calculated | 11/49 (22%), 4/50 (8%), 64%, not calculated
